From US20210137997A1 (priority 2016, published 2021)
Where two headings read alike, the source gives them in different places.

Legend:
[1] = tested on: health-associated type II P. acnes strains; assay: Extracellular porphyrin production in culture, health-associated type II strains; assay type: cell-based, Propionibacterium acnes
Procedure: (§1) P. acnes strains and cultures.
(§2) Extraction, identification, and quantification of extracellular porphyrins. For each strain, porphyrins were extracted using the method described by Kang et al. (Sci Transl Med 7:293ra103 (2015)). Briefly, 500 μL of bacterial culture was extracted in ethyl acetate and acetic acid (4:1, v/v), and solubilized in 1.5M HCl. The absorbance at 405 nm was measured from 200 μL of the soluble phase using a Tecan Genios Spectrophotometer M1000 (Tecan US Inc, Morrisville, N.C.). The standard curve to convert absorbance to concentration was generated using coproporphyrin III standards of known concentration (C654-3, Frontier Sci). Porphyrin levels were measured in P. acnes strain KPA171202 using the quantification method described by Wollenberg et al. (MBio 5:e01286-01214 (2014)). […] Porphyrins were extracted from cultures at stationary phase. […] Bacterial culture density was measured at OD595 for normalization of porphyrin levels. For mass spectrometry experiments, extracted porphyrins were directly injected onto an Agilent 6460 Triple Quad LC/MS system and each strain's m/z in the negative ion mode was identified.
(§3) Statistical analysis for porphyrin production comparisons. The average amount of porphyrins produced by each strain under each culture condition was calculated based on the data from at least three independent experiments, with at least three replicates for each. The porphyrin levels between strains, groups (acne-associated vs. health-associated), and culture conditions (with treatment vs. without treatment) were estimated in a linear mixed effect model, with random intercepts by trial to account for trial effects. P-values for specific comparisons among groups were corrected using Tukey's method. All statistical analysis was performed using R software (version 3.1.3).
(§4) To investigate whether different P. acnes strains produce the same porphyrin species, the types of porphyrins secreted by multiple P. acnes strains where characterized using mass spectrometry. Four acne-associated type IA-2 strains, HL053PA1 (RT4), HL045PA1 (RT4), HL043PA1 (RT5), and HL043PA2 (RT5), and three health-associated type II strains, HL001PA1 (RT2), HL103PA1 (RT2), and HL042PA3 (RT6), were examined (Table 1). No difference in the porphyrin species produced by these P. acnes strains was observed. Coproporphyrin III was the dominant porphyrin isomer produced by all strains ([M+H]^+=655.3). Minimal amounts of coproporphyrin I were also detected. Porphyrin levels are measured with the following method. Bacterial cells are collected, and porphyrins are extracted. The concentration of porphyrins is measured spectrophotometrically and normalized to the optical density (also measured spectrophotometrically). Porphyrin levels are therefore measured per bacterial unit.

[2] = tested on: acne-associated type IA-2 P. acnes strains; assay type: cell-based, Propionibacterium acnes
Procedure: as §1, §2, §3, §4

[3] = tested on: P. acnes strains; assay type: cell-based, Propionibacterium acnes
Procedure: Common to most of the RT4 and RT5 strains, these strains harbor mutations in their 16S and 23S rRNA genes, which confer antibiotic resistance. […] To confirm the findings, an additional three type II strains, HL110PA3, HL106PA1, and HL050PA2, were also tested. […] For each experiment, 5 mL of reinforced clostridial broth was inoculated with 5×10^5 P. acnes cells per mL of culture. Cultures were grown to stationary phase anaerobically at 37° C. in a light-protected box. Cultures were supplemented on day 0 with vitamin B12 (10 μg/mL), 5-ALA (0.1 mg/mL), and/or LA (0.1 mg/mL). As controls, P. acnes strains were also cultured without supplementation. Three to five independent experiments with at least three replicates per experiment were performed for each strain, except strains HL110PA3, HL106PA1, and HL050PA2, which were tested in only one experiment with three replicates.
Extraction, identification, and quantification of extracellular porphyrins. For each strain, porphyrins were extracted using the method described by Kang et al. (Sci Transl Med 7:293ra103 (2015)). Briefly, 500 μL of bacterial culture was extracted in ethyl acetate and acetic acid (4:1, v/v), and solubilized in 1.5M HCl. The absorbance at 405 nm was measured from 200 μL of the soluble phase using a Tecan Genios Spectrophotometer M1000 (Tecan US Inc, Morrisville, N.C.). The standard curve to convert absorbance to concentration was generated using coproporphyrin III standards of known concentration (C654-3, Frontier Sci). Porphyrin levels were measured in P. acnes strain KPA171202 using the quantification method described by Wollenberg et al. (MBio 5:e01286-01214 (2014)). […] Porphyrins were extracted from cultures at stationary phase. […] Bacterial culture density was measured at OD595 for normalization of porphyrin levels. […]

[4] = tested on: P. acnes; details: 0.1 mg/mL LA (range 0.1 to 1.0 mg/mL assessed)
Description: P. acnes strains and cultures. […] Four RT4 and RT5 P. acnes strains, HL053PA1, HL045PA1, HL043PA1, and HL043PA2, were selected to represent type IA-2 strains, which were associated with the disease based on a 16S metagenomic study (J Invest Dermatol 133:2152-2160 (2013)). […] Three RT2 and RT6 strains, HL001PA1, HL103PA1, and HL042PA3, were selected to represent type II strains that were associated with healthy skin. To confirm the findings, an additional three type II strains, HL110PA3, HL106PA1, and HL050PA2, were also tested. […] For each experiment, 5 mL of reinforced clostridial broth was inoculated with 5×10^5 P. acnes cells per mL of culture. Cultures were grown to stationary phase anaerobically at 37° C. in a light-protected box. Cultures were supplemented on day 0 with vitamin B12 (10 μg/mL), 5-ALA (0.1 mg/mL), and/or LA (0.1 mg/mL). As controls, P. acnes strains were also cultured without supplementation. Three to five independent experiments with at least three replicates per experiment were performed for each strain, except strains HL110PA3, HL106PA1, and HL050PA2, which were tested in only one experiment with three replicates.

[5] = tested on: cbiL (vitamin B12 biosynthesis gene) in health-associated type II strains; assay: cbiL gene expression by qRT-PCR, type II strains; assay type: cell-based, Propionibacterium acnes; details: 10 μg/mL vitamin B12 vs without, normalized to 16S rRNA
Procedure: (§5) RNA extraction and cDNA synthesis. For cbiL and deoR gene expression analysis, cells were lysed with bead beating. Total RNA was extracted using the standard phenol-chloroform method and purified using RNeasy kit (Qiagen). DNA was removed using the Turbo DNA-free kit (Life Technologies). RNA quality was assessed using gel electrophoresis. Single-stranded complementary DNA (cDNA) was synthesized using SuperScript III First-Strand Synthesis SuperMix (Life Technologies).
(§6) Analysis of cbiL gene expression. qRT-PCR was performed using the LightCycler 480 High Resolution Melting Master Mix (Roche) on a LightCycler 480 (Roche) with the following primers: cbiL-forward, 5′-[…]-3′ (SEQ ID NO: 1), and cbiL-reverse, 5′-[…]-3′ (SEQ ID NO: 2). The following qRT-PCR protocol was used: initial denaturation at 95° C. for 5 min, followed by 50 cycles of 95° C. for 10 sec, 62° C. for 30 sec, and 72° C. for 30 sec. The fold change in cbiL gene expression between cultures with vitamin B12 supplementation and cultures without supplementation was calculated. The gene expression level of cbiL in each sample was normalized against the 16S rRNA transcript level. Melting curve analysis was performed using the Light Cycler 480 software Version 1.5 (Roche) to verify the specificity of the amplified products based on their melting temperatures. All reactions were run in triplicate.

[6] = tested on: P. acnes strain HL025PA1; assay: Extracellular porphyrin production in culture, type I strain with deoR; assay type: cell-based, Propionibacterium acnes; details: 10 μg/mL vitamin B12
Procedure: as §1
as §2, with “For mass spectrometry experiments, extracted porphyrins were directly injected onto an Agilent 6460 Triple Quad LC/MS system and each strain's m/z in the negative ion mode was identified.” left out
Statistical analysis for porphyrin production comparisons. The average amount of porphyrins produced by each strain under each culture condition was calculated based on the data from at least three independent experiments, with at least three replicates for each. […]

[7] = tested on: cbiL (vitamin B12 biosynthesis gene) in acne-associated type IA-2 strains; assay: cbiL gene expression by qRT-PCR, type IA-2 strains; assay type: cell-based, Propionibacterium acnes; details: 10 μg/mL vitamin B12 vs without, normalized to 16S rRNA
Procedure: as §5, §6

[8] = tested on: cbiL (vitamin B12 biosynthesis gene) in HL025PA1; assay: cbiL gene expression by qRT-PCR, HL025PA1; assay type: cell-based, Propionibacterium acnes; details: 10 μg/mL vitamin B12
Procedure: as §5, §6

In the case of `NCC(=O)CCC(=O)O` [5-ALA, 5-aminolevulinic acid], the “average fold increase in porphyrin production” value ([1]; 0.1 mg/mL 5-ALA only vs untreated controls, P≤0.06 except HL001PA1) is reported as 3.4 fold and the “average fold increase in porphyrin production” value ([2]; 0.1 mg/mL 5-ALA only vs untreated controls, P<0.0001) is reported as 2.2 fold.
For `CC(=O)CCC(=O)O` [LA, levulinic acid], the “average reduction of porphyrin production compared to untreated cultures” value [3] was 30%, the “reduction of porphyrins by LA in combination with vitamin B12” value [2] was “no significant reduction of porphyrins” and the “effect on bacterial growth” value [4] was “did not significantly affect the bacterial growth”.
In the case of vitamin B12, the “average fold change of cbiL gene expression” value [5] is reported as 0.24 fold, the “average porphyrin level with vitamin B12 supplementation” value ([1]; 10 μg/mL vitamin B12, 1.1 μM without, P≥0.77) is reported as 1.1 µM and the “further enhancement of porphyrin production compared to substrate only” value ([1]; 10 μg/mL vitamin B12 in combination with 0.1 mg/mL 5-ALA, P≥0.94) is reported as “not in health-associated type II strains”. The “counteraction by vitamin B12 of the inhibition of porphyrin biosynthesis by LA” value ([1]; 0.1 mg/mL LA with 10 μg/mL vitamin B12) was “not in health-associated type II strains”, the “effect of vitamin B12 on porphyrin production level” value ([1]; strains HL110PA3, HL106PA1, HL050PA2, 10 μg/mL) was “not significantly affected” and the “effect of vitamin B12 on porphyrin production” value [6] was “unaffected”. The “average fold change of cbiL gene expression” value [7] was 0.74 fold, the “response of porphyrin production to vitamin B12 supplementation” value ([3]; type I strains, FIG. 12) was “increased porphyrin production” and the “response of porphyrin production to vitamin B12 supplementation” value ([3]; type II and type III strains, data not shown) was “not observed”. The “average porphyrin level with vitamin B12 supplementation” value ([2]; 10 μg/mL vitamin B12, increasing from 6.5 μM without) was 9.2 µM, the “fold increase in porphyrin production compared to substrate only” value ([2]; 10 μg/mL vitamin B12 in combination with 0.1 mg/mL 5-ALA) was 2.7 fold and the “effect on vitamin B12 biosynthesis gene expression” value [8] was “transcriptional repression”.
